From patent US20110229570A1, “ORALLY RAPIDLY DISINTEGRATING TABLET AND PROCESS FOR PRODUCING SAME” (priority 2008, published 2011)

Experiments:
[1] = Hardness of tablet (tablet hardness tester); type: physicochemical; conditions: 1000 kg/punch; for Hardness, tablet obtained by compressing an excipient only: 300 mg tablet, flat punch 10 mm; for Hardness, tablet obtained by compressing a mixture of an excipient and a water-insoluble polymer: 300 mg
Protocol: A hardness of tablet was measured using a tablet hardness tester (manufactured by Schleuniger, type: 6D). The measurement was carried out thrice, and a hardness of tablet was obtained on an average thereof.

[2] = Water wettability (wetness time) of tablet; type: physicochemical; conditions: 1000 kg/punch; for Wetness time, tablet obtained by compressing an excipient only: 300 mg tablet, flat punch 10 mm; for Wetness time, tablet obtained by compressing a mixture of an excipient and a water-insoluble polymer: 300 mg
Protocol: A water wettability (wetness time) of a tablet was measured in accordance with a known procedure [Chem. Pharm. Bull. 44 (1), 2121-2127 (1996)] as below. Specifically, purified water (6 mL) was put in a weighing dish, and thereon were placed quarto tissue papers (205 mm×120 mm, KimWipe S-200, manufactured by NIPPON PAPER CRECIA Co., LTD). The papers were entirely moistened, and then thereon was gently placed one tablet, and a wetness time required for entirely moistening the tablet was measured.

[3] = (*1) 97 parts excipient + 3 parts HPMC-AS HF
[4] = (*2) 90 parts excipient + 10 parts HPMC-AS HF

| Hardness, tablet obtained by compressing an excipient only [1] | Hardness, tablet obtained by compressing a mixture of an excipient and a water-insoluble polymer [1, 3] | Wetness time, tablet obtained by compressing an excipient only [2] | Wetness time, tablet obtained by compressing a mixture of an excipient and a water-insoluble polymer [2, 3] | Hardness, tablet obtained by compressing a mixture of an excipient and a water-insoluble polymer [1, 4] | Wetness time, tablet obtained by compressing a mixture of an excipient and a water-insoluble polymer [2, 4] | Compound |
| --- | --- | --- | --- | --- | --- | --- |
| 12 N | 53 (*1) N | 18 s | 43 (*1) seconds | – | – | OC[C@@H](O)[C@@H](O)[C@H](O)[C@H](O)CO [D-mannitol] |
| <4 N | – | – | – | 23 (*2) N | 37 (*2) seconds | OC[C@@H](O)[C@@H](O)CO [Erythritol] |
| 229 N | 207 (*1) N | >300 s | >300 (*1) seconds | – | – | OC[C@@H](O)[C@@H](O)[C@H](O)[C@@H](O)CO [Sorbitol] |

The next lines start with the molecule.

| Compound | Hardness, tablet obtained by compressing an excipient only [1] | Hardness, tablet obtained by compressing a mixture of an excipient and a water-insoluble polymer [1, 3] | Wetness time, tablet obtained by compressing an excipient only [2] | Wetness time, tablet obtained by compressing a mixture of an excipient and a water-insoluble polymer [2, 3] | Hardness, tablet obtained by compressing a mixture of an excipient and a water-insoluble polymer [1, 4] | Wetness time, tablet obtained by compressing a mixture of an excipient and a water-insoluble polymer [2, 4] |
| --- | --- | --- | --- | --- | --- | --- |
| OC[C@H]1O[C@@](CO)(O[C@H]2O[C@H](CO)[C@@H](O)[C@H](O)[C@H]2O)[C@@H](O)[C@@H]1O [Purified sucrose] | 41 N | – | 3 s | – | – | – |
| OC[C@@H](O)[C@H](O)[C@@H](O)CO [Xylitol] | 12 N | – | 3 s | – | 38 (*2) N | 74 (*2) seconds |
